# Assay results taken from publication PMC5193436 (PLoS ONE, 2016).
# Target: T1, Enolase 1 (αEnolase) (Homo sapiens, UniProt P06733)
# T1 construct: gene ENO1; recombinant ENO1
# Assay: direct spectrophotometric PEP assay ([…] nm) with purified recombinant ENO1; NADH-coupled assay in lysates
# Assay type: biochemical
# T1 sequence (P06733 2-434): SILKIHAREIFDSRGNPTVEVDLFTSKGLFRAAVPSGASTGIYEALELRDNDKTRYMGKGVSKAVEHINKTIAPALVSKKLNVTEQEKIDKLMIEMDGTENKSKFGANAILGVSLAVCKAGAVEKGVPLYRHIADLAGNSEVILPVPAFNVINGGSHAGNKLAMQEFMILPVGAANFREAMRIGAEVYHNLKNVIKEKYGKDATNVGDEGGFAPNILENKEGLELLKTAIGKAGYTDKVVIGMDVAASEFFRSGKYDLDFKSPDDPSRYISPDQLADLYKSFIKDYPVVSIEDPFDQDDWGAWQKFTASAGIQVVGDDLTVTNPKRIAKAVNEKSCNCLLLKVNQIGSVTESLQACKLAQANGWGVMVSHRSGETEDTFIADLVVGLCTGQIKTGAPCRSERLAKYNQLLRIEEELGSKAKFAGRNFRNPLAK
smiles,measurement,value
"O=C1C(P(=O)(O)O)CC(O)N1O (stereo not shown) [SF2312, 3-dihydroxyphosphoryl-1,5-dihydroxy-2-pyrrolidone]",direct spectrophotometric PEP assay (240 nm) with purified recombinant ENO1; NAD,SF2312 (c) on Enolase activity in purified recombinant ENO1 and ENO2 was determined using the direct PEP-detection assay
